Source: patent publication US4387101A, “Thiazolidine derivatives and their use” (Takeda Chemical Industries, Ltd., priority 1980, dated 1983)

Experiments:
[1] = single-dose lethality test in mice; format: in vivo; settings: 2500 mg/kg once; groups of 5 mice
Experimental: In a test in mice (each group consisting of 5 mice), when the compounds (I), for example, 5-(3-ethoxy-4-pentyloxyphenyl)thiazolidine-2,4-dione and 5-(3-ethoxy-4-isopentyloxyphenyl)thiazolidine-2,4-dione were administered at a dose of 2500 mg/kg once, no mouse died.

rat lens = experiment: swelling inhibitory effect in rat lens culture assay; format: cell-based; settings: 10^-6 M
Experimental: The swelling inhibitory effect of each compound in a rat lens culture assay was evaluated by the method described in H. Obazawa et al., Invest. Ophthalmol Vol. 13, Nr. 3, 204 (1974).
The result for each compound was expressed as the % inhibition of swelling into the lens at the concentration of 10^-6 mole and are shown in Table 3.

aldose reductase = biological target: T1, aldose reductase (Homo sapiens, UniProt P15121); experiment: aldose reductase activity, partially purified preparation from human placenta; format: biochemical; settings: 10^-6 M
T1 construct: partially purified aldose reductase preparation from human placenta; from tissue; host or cells: human placenta
Experimental: The effect of the thiazolidine derivative (I) on aldose reductase activity was assayed after the method described in S. Haymen et al., Journal of Biological Chemistry, Vol. 240, 877 (1965) and Jin H. Kinoshita et al., Metabolism, Vol. 28, Nr. 4, Suppl 1, 462 (1979), etc. The enzyme used in the assay was a partially purified aldose reductase preparation from human placenta. The results for the respective compounds were expressed as % inhibition at the concentration of 10^-6 mole and are shown in Table 2.

Row | SMILES | inhibition at 1 µM (aldose reductase) [%] | death of mice [1] | inhibition at 1 µM (rat lens) [%]
1 | CCOc1cc(C2SC(=O)NC2=O)ccc1OCCC(C)C (stereo not drawn) [5-(3-ethoxy-4-isopentyloxyphenyl)thiazolidine-2,4-dione] | – | no mouse died | –
2 | CCCCCOc1ccc(C2SC(=O)NC2=O)cc1OCC (stereo not drawn) [Example 4, 5-(3-ethoxy-4-pentyloxyphenyl)-thiazolidine-2,4-dione] | 34.6 | no mouse died | 44.6
3 | Cc1ccc(C2SC(=O)NC2=O)cc1C (stereo not drawn) [Example 5, 5-(3,4-dimethylphenyl)thiazolidine-2,4-dione] | 35.8 | – | –
4 | CCOc1ccc(C2SC(=O)NC2=O)cc1OCC (stereo not drawn) [Example 10 - No. 2] | 57 | – | 37
5 | CC(=O)Oc1ccc(C2SC(=O)NC2=O)cc1OC(C)=O (stereo not drawn) [Example 10 - No. 5] | 76.9 | – | –
6 | O=C1NC(=O)C(c2ccc3c(c2)OCO3)S1 (stereo not drawn) [Example 10 - No. 7] | 47.4 | – | –
7 | CCCOc1ccc(C2SC(=O)NC2=O)cc1OCCC (stereo not drawn) [Example 10 - No. 10] | 53.5 | – | –
8 | CCOc1cc(C2SC(=O)NC2=O)ccc1OCCC(C)C (stereo not drawn) [Example 10 - No. 13] | 34 | – | 25.3
9 | CCOc1cc(C2SC(=O)NC2=O)ccc1OCCCC(C)C (stereo not drawn) [Example 10 - No. 15] | 60.6 | – | –
10 | CCCCOc1ccc(C2SC(=O)NC2=O)cc1OC (stereo not drawn) [Example 10 - No. 16] | 38.7 | – | –
11 | CCCCCCOc1ccc(C2SC(=O)NC2=O)cc1OC (stereo not drawn) [Example 10 - No. 18] | 32.2 | – | –
12 | COc1cc(C2SC(=O)NC2=O)ccc1OCCCC(C)C (stereo not drawn) [Example 10 - No. 19] | 68.1 | – | –
13 | CCCCCOc1cc(C2SC(=O)NC2=O)ccc1OC (stereo not drawn) [Example 10 - No. 20] | 30 | – | –

More lines, main results first:

Row | inhibition at 1 µM (aldose reductase) [%] | SMILES | death of mice [1] | inhibition at 1 µM (rat lens) [%]
14 | 57.1 | COc1ccc(C2SC(=O)NC2=O)cc1OC (stereo not drawn) [Example 10 - No. 1] | – | 30.3
15 | 51.6 | CCOc1cc(C2SC(=O)NC2=O)ccc1O (stereo not drawn) [Example 10 - No. 3] | – | –
16 | 59 | CCOc1cc(C2SC(=O)NC2=O)ccc1OC(C)=O (stereo not drawn) [Example 10 - No. 4] | – | 23.7
17 | 41.8 | O=C1NC(=O)C(c2ccc(O)c(O)c2)S1 (stereo not drawn) [Example 10 - No. 6] | – | –
18 | 51.7 | CCCCOc1ccc(C2SC(=O)NC2=O)cc1OCCCC (stereo not drawn) [Example 10 - No. 8] | – | –
19 | 55.2 | CCCCOc1ccc(C2SC(=O)NC2=O)cc1OCC (stereo not drawn) [Example 10 - No. 9] | – | –
20 | 37.7 | CCCCCCOc1ccc(C2SC(=O)NC2=O)cc1OCC (stereo not drawn) [Example 10 - No. 12] | – | 33
21 | 28 | CCOc1cc(C2SC(=O)NC2=O)ccc1OCC(C)(C)C (stereo not drawn) [Example 10 - No. 14] | – | 57.2
22 | 40.6 | CCCCCOc1ccc(C2SC(=O)NC2=O)cc1OC (stereo not drawn) [Example 10 - No. 17] | – | –
